# From PMC11876601 (Molecular Systems Biology, 2025)
# Read-outs that look alike come from different tables or passages of the source.
# How the values were obtained:
# Assay in all cases: cells
# AsPC-1 [1] = tested on: AsPC-1; set-up: ATPlite luminescence viability of PDAC cell lines, 11-dose single-agent curves, 4-parameter fit; details: Homo sapiens, ASPC1, 72 h, read-out: EC50 [nM]
# In short: (§1)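 Drug-combination screening used cells plated at 1000 to 5000 per well one day before treatment. Final DMSO was 0.2%. Each plate held untreated negative-control wells and 5 µM staurosporine positive-control wells.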
# HPDE [2] = tested on: HPDE; set-up: ATPlite luminescence viability of PDAC cell lines, 11-dose single-agent curves, 4-parameter fit; details: HPDE, 72 h, read-out: EC50 [nM]
# In short: as §1
# MiaPaCa-2 [3] = tested on: MiaPaCa-2; set-up: ATPlite luminescence viability of PDAC cell lines, 11-dose single-agent curves, 4-parameter fit; details: Homo sapiens, MIA PaCa-2, 72 h, read-out: EC50 [nM]
# In short: as §1
# FAMPAC [4] = tested on: FAMPAC; set-up: ATPlite luminescence viability of PDAC cell lines, 11-dose single-agent curves, 4-parameter fit; details: 72 h, read-out: EC50 [nM]
# In short: as §1
# Colo-357 [5] = tested on: Colo-357; set-up: ATPlite luminescence viability of PDAC cell lines, 11-dose single-agent curves, 4-parameter fit; details: Homo sapiens, COLO357, 72 h, read-out: EC50 [nM]
# In short: as §1
# Dan-G [6] = tested on: Dan-G; set-up: ATPlite luminescence viability of PDAC cell lines, 11-dose single-agent curves, 4-parameter fit; details: 72 h, read-out: EC50 [nM]
# In short: as §1
# BxPC-3 [7] = tested on: BxPC-3; set-up: ATPlite luminescence viability of PDAC cell lines, 11-dose single-agent curves, 4-parameter fit; details: Homo sapiens, BXPC-3, 72 h, read-out: EC50 [nM]
# In short: as §1
# Suit2-07 [8] = tested on: Suit2-07; set-up: ATPlite luminescence viability of PDAC cell lines, 11-dose single-agent curves, 4-parameter fit; details: 72 h, read-out: EC50 [nM]
# In short: as §1
# PaTu-8988-T [9] = tested on: PaTu-8988-T; set-up: ATPlite luminescence viability of PDAC cell lines, 11-dose single-agent curves, 4-parameter fit; details: Homo sapiens, PaTu 8988t, 72 h, read-out: EC50 [nM]
# In short: as §1
# PANC-1 = tested on: PANC-1; set-up: Viability of PDAC cell lines, ATPlite luminescence, 11-dose single-agent curve fit; details: Homo sapiens, PANC-1, 72 h, read-out: EC50 [nM]
# In short: (§2)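 screening used cells plated at 1000 to 5000 per well one day before treatment. Final DMSO was 0.2%. Each plate held untreated negative-control wells and 5 µM staurosporine positive-control wells.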
# Capan-1 [10] = tested on: Capan-1; set-up: Viability of PDAC cell lines, ATPlite luminescence, 11-dose single-agent curve fit; details: Homo sapiens, CAPAN-1, 72 h, read-out: EC50 [nM]
# In short: as §2
# HuP-T4 = tested on: HuP-T4; set-up: Viability of PDAC cell lines, ATPlite luminescence, 11-dose single-agent curve fit; details: Homo sapiens, HuP-T4, 72 h, read-out: EC50 [nM]
# In short: as §2
# PSN-1 [11] = tested on: PSN-1; set-up: Viability of PDAC cell lines, ATPlite luminescence, 11-dose single-agent curve fit; details: Homo sapiens, PSN1, 72 h, read-out: EC50 [nM]
# In short: as §2
# AsPC-1 [12] = tested on: AsPC-1; set-up: Viability of PDAC cell lines, ATPlite luminescence, 11-dose single-agent curve fit; details: Homo sapiens, ASPC1, 72 h, read-out: EC50 [nM]
# In short: as §2
# MiaPaCa-2 [13] = tested on: MiaPaCa-2; set-up: Viability of PDAC cell lines, ATPlite luminescence, 11-dose single-agent curve fit; details: Homo sapiens, MIA PaCa-2, 72 h, read-out: EC50 [nM]
# In short: as §2
# Suit2-07 [14] = tested on: Suit2-07; set-up: Viability of PDAC cell lines, ATPlite luminescence, 11-dose single-agent curve fit; details: 72 h, read-out: EC50 [nM]
# In short: as §2
# PaTu-8988-T [15] = tested on: PaTu-8988-T; set-up: Viability of PDAC cell lines, ATPlite luminescence, 11-dose single-agent curve fit; details: Homo sapiens, PaTu 8988t, 72 h, read-out: EC50 [nM]
# In short: as §2
# PSN-1 [16] = tested on: PSN-1; set-up: ATPlite luminescence viability of PDAC cell lines, 11-dose single-agent curves, 4-parameter fit; details: Homo sapiens, PSN1, 72 h, read-out: EC50 [nM]
# In short: as §1
# Colo-357 [17] = tested on: Colo-357; set-up: Viability of PDAC cell lines, ATPlite luminescence, 11-dose single-agent curve fit; details: Homo sapiens, COLO357, 72 h, read-out: EC50 [nM]
# In short: as §2
# FAMPAC [18] = tested on: FAMPAC; set-up: Viability of PDAC cell lines, ATPlite luminescence, 11-dose single-agent curve fit; details: 72 h, read-out: EC50 [nM]
# In short: as §2
# Dan-G [19] = tested on: Dan-G; set-up: Viability of PDAC cell lines, ATPlite luminescence, 11-dose single-agent curve fit; details: 72 h, read-out: EC50 [nM]
# In short: as §2
# BxPC-3 [20] = tested on: BxPC-3; set-up: Viability of PDAC cell lines, ATPlite luminescence, 11-dose single-agent curve fit; details: Homo sapiens, BXPC-3, 72 h, read-out: EC50 [nM]
# In short: as §2
# Capan-1 [21] = tested on: Capan-1; set-up: ATPlite luminescence viability of PDAC cell lines, 11-dose single-agent curves, 4-parameter fit; details: Homo sapiens, CAPAN-1, 72 h, read-out: EC50 [nM]
# In short: as §1
# HPDE [22] = tested on: HPDE; set-up: Viability of PDAC cell lines, ATPlite luminescence, 11-dose single-agent curve fit; details: HPDE, 72 h, read-out: EC50 [nM]
# In short: as §2
SMILES,EC50 (AsPC-1 [1]) [nM],EC50 (HPDE [2]) [nM],EC50 (MiaPaCa-2 [3]) [nM],EC50 (FAMPAC [4]) [nM],EC50 (Colo-357 [5]) [nM],EC50 (Dan-G [6]) [nM],EC50 (BxPC-3 [7]) [nM],EC50 (Suit2-07 [8]) [nM],EC50 (PaTu-8988-T [9]) [nM],EC50 (PANC-1) [nM],EC50 (Capan-1 [10]) [nM],EC50 (HuP-T4) [nM],EC50 (PSN-1 [11]) [nM],EC50 (AsPC-1 [12]) [nM],EC50 (MiaPaCa-2 [13]) [nM],EC50 (Suit2-07 [14]) [nM],EC50 (PaTu-8988-T [15]) [nM],EC50 (PSN-1 [16]) [nM],EC50 (Colo-357 [17]) [nM],EC50 (FAMPAC [18]) [nM],also measured
COc1cc2/c(=N/c3ccc(Br)cc3F)nc[nH]c2cc1OCC1CCN(C)CC1 [Vandetanib],> 10000,1520,> 10000,> 10000,6050,> 10000,3600,> 10000,> 10000,3860,> 10000,23.9,> 10000,–,–,–,–,–,–,–,–
C[C@@H]1COC(Nc2ccc3ncnc(Nc4ccc(OCc5nccs5)c(Cl)c4)c3c2)=N1 [Varlitinib],–,1930,–,> 10000,676,630,1760,–,–,> 10000,724,40.5,2940,390,4440,2070,861,–,–,–,–
CCn1c(=O)c(-c2cc(NC(=O)Nc3ccccc3)c(F)cc2Br)cc2cnc(NC)cc21 [Ripretinib],1270,901,589,912,–,501,467,431,717,> 10000,758,592,–,–,–,–,–,582,611,–,–
CNC(=O)c1cccc2cc(Oc3ccnc4cc(OCC5(N)CC5)c(OC)cc34)ccc12 [Lucitanib],–,9210,–,–,–,–,–,–,–,2920,> 10000,> 10000,8180,8920,> 10000,5330,5920,–,> 10000,> 10000,EC50 (Dan-G [19]): 665 nM; EC50 (BxPC-3 [20]): 9500 nM
CS(=O)(=O)CCNCc1ccc(-c2ccc3ncnc(Nc4ccc(OCc5cccc(F)c5)c(Cl)c4)c3c2)o1 [Lapatinib],–,> 10000,–,–,815,3780,–,–,–,> 10000,> 10000,> 10000,> 10000,> 10000,> 10000,7910,> 10000,–,–,> 10000,EC50 (BxPC-3 [20]): 8320 nM
CN(C)CCCOc1ccc(-c2ccc3ncc4c(c3c2)n(C2CCOCC2)c(=O)n4C)cn1 [AZD-0156],> 10000,10400,1010,1890,6410,–,5990,1960,606,> 10000,> 10000,–,–,–,–,–,–,3260,–,–,EC50 (Dan-G [19]): 4160 nM
C=CC(=O)Nc1cccc(Oc2nc(Nc3ccc(N4CCN(C)CC4)cc3)nc3ccsc23)c1 [Olmutinib],6710,3900,5290,> 10000,–,> 10000,5220,7100,> 10000,> 10000,> 10000,2230,–,–,–,–,–,7020,8230,–,–
NC(=O)c1cccc2cn(-c3ccc([C@@H]4CCCNC4)cc3)nc12 [Niraparib],–,–,2020,3370,1160,1710,–,1010,–,3580,–,10.5,–,> 10000,–,–,4150,1740,–,–,EC50 (Capan-1 [21]): 3180 nM; EC50 (HPDE [22]): 4720 nM; EC50 (BxPC-3 [20]): 1010 nM
COc1cc2ncnc(Nc3cccc(Cl)c3F)c2cc1OC(=O)N1CCN(C)C[C@H]1C [AZD3759],–,483,–,–,464,445,–,–,–,8860,1200,2590,2560,515,2570,1330,1690,–,–,2880,EC50 (BxPC-3 [20]): 847 nM
C[C@]1(O)C[C@@H](c2nc(-c3ccc4ccc(-c5ccccc5)nc4c3)c3c(N)nccn32)C1 [Linsitinib],1540,7060,416,–,–,–,–,239,–,> 10000,1750,21.6,7340,–,–,–,6100,–,4180,4850,EC50 (Dan-G [19]): 3840 nM; EC50 (BxPC-3 [20]): > 10000 nM
C#Cc1cccc(Nc2ncnc3cc4c(cc23)OCCOCCOCCO4)c1 [Icotinib],–,1000,–,–,2260,1530,–,–,–,716,1900,0.21,42,416,1760,101,91.9,–,–,6990,EC50 (BxPC-3 [20]): 5260 nM
O=C1CCc2c(Oc3ccc4c(c3)[C@@H]3[C@H](O4)[C@H]3c3nc4cc(C(F)(F)F)ccc4[nH]3)ccnc2N1 [Lifirafenib],966,1980,2650,2510,–,2000,3060,> 10000,2540,> 10000,9370,4500,–,–,–,–,–,696,3500,–,–
CCN(CC)CCNC(=O)c1c(C)[nH]c(/C=C2\C(=O)Nc3ccc(F)cc32)c1C [Sunitinib],> 10000,5050,2340,5670,–,4120,2840,3180,2190,> 10000,> 10000,114,–,–,–,–,–,5160,10100,–,–
C=CC(=O)N1CCC([C@@H]2CCNc3c(C(N)=O)c(-c4ccc(Oc5ccccc5)cc4)nn32)CC1 [Zanubrutinib],–,3010,–,–,–,–,> 10000,–,–,3410,2290,796,132,300,9130,7180,547,–,2200,75.9,EC50 (Dan-G [19]): 578 nM
COc1cc(Nc2ncc3c(n2)-c2ccc(Cl)cc2C(c2c(F)cccc2OC)=NC3)ccc1C(=O)O [Alisertib],–,–,87,68.6,291,914,848,–,–,95.6,–,64.4,–,405,–,272,274,846,–,–,EC50 (Capan-1 [21]): 427 nM; EC50 (HPDE [22]): 2700 nM
